Source: ChEMBL document CHEMBL4420061, “Compositions and methods of inhibiting retinal degeneration” (2013)
Active and inactive are the calls of the source. The calls are words filed in the database; no cut-off is given here.

How the values were obtained:
Rattus norvegicus [1] = assay: Protection against light-induced retinal degeneration in Sprague-Dawley rat assessed as photoreceptor levels in central and superior retina at 50 mg/kg, ip dosed 0.5 hrs before 6 hrs light exposure relative to control; type: functional
Rattus norvegicus [2] = assay: Inhibition of rhodopsin regeneration in overnight dark-adaptated Sprague-Dawley rat assessed as effect on rhodopsin recovery by measuring rhodopsin content at 50 mg/kg, ip followed by exposure to room light for 2 hrs and measured 2.5 hrs after photo-bleach by spectrophotometry; type: functional, organism-based
Rattus norvegicus [3] = assay: Protection against light-induced retinal degeneration in overnight dark-adaptated Sprague-Dawley rat assessed as protection of retinal rod function by measuring effect on A-waves at 50 mg/kg, ip dosed 30 mins prior to exposure to 4 log cd.s/m2 test flash by electroretinography relative to control; type: functional
Rattus norvegicus [4] = assay: (§1) Protection against light-induced retinal degeneration in Sprague-Dawley rat assessed as suppression of light-induced retinal function loss by measuring preservation of cone function at 50 mg/kg, ip dosed after 6 hrs light exposure and measured 7 days after light-exposure by electroretinography; type: functional, organism-based
Rattus norvegicus [5] = assay: as §1, with “dosed 16 to 24 hrs before” for “dosed after”; type: functional, organism-based
Rattus norvegicus [6] = assay: (§2) Protection against light-induced retinal degeneration in Sprague-Dawley rat assessed as suppression of light-induced retinal function loss by measuring Rod-a and b-wave responses at 50 mg/kg, ip dosed 0.5 hrs before 6 hrs light exposure and measured 7 days after light-exposure by electroretinography; type: functional, organism-based
Rattus norvegicus [7] = assay: as §1, with “dosed 0.5 to 12 hrs before” for “dosed after”; type: functional, organism-based
Rattus norvegicus [8] = assay: Protection against light-induced retinal degeneration in Sprague-Dawley rat assessed as suppression of light-induced retinal function loss by measuring Rod-a and b-wave responses at 50 mg/kg, ip dosed 0.5 hrs after 6 hrs light exposure and measured 7 days after light-exposure by electroretinography; type: functional, organism-based
[9] = molecular target: T1, Retinoid isomerohydrolase (Rattus norvegicus) (UniProt O70276); assay: Inhibition of RPE65 in rat RPE microsomes assessed as reduction in isomero-hydrolase activity by measuring 11-cis-retinol generation using all-trans-[3H]-retinol by HPLC analysis
T1 sequence (whole entry): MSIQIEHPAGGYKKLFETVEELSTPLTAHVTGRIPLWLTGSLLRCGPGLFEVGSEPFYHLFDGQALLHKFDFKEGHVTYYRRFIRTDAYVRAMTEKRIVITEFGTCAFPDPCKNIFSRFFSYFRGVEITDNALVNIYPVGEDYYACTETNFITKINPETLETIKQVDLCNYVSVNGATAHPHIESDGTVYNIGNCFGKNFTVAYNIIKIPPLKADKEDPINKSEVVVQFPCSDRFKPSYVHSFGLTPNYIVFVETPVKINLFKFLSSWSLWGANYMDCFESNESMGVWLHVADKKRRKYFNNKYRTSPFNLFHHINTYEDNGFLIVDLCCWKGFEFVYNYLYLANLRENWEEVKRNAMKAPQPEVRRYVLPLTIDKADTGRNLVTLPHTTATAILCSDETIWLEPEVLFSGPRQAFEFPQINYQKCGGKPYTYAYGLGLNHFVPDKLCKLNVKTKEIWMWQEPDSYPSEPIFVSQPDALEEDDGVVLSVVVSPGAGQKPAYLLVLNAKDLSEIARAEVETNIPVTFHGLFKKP

Mus musculus [10] = assay: Inhibition of rhodopsin regeneration in completely light-adapted mouse BALB/c mouse assessed as rhodopsin recovery level by measuring effect on rhodopsin content at 5% dosed to eyes via eye drop before dark adaptation for 1 hr by spectrophotometry (reference value: 78.83%); type: functional; design: scale not given: the % may be the effect or the level left
Rattus norvegicus [11] = assay: Protection against light-induced retinal degeneration in Sprague-Dawley rat assessed as suppression of light-induced retinal structure loss at 50 mg/kg, ip dosed 0.5 hrs after 6 hrs light exposure and measured 7 days after light-exposure by electroretinography; type: functional, organism-based
Rattus norvegicus [12] = assay: Protection against light-induced retinal degeneration in Sprague-Dawley rat assessed as suppression of light-induced retinal structure loss at 50 mg/kg, ip dosed 0.5 hrs before 6 hrs light exposure and measured 7 days after light-exposure by electroretinography; type: functional, organism-based
Mus musculus [13] = assay: Inhibition of rhodopsin regeneration in completely light-adapted mouse BALB/c mouse assessed as effect on rhodopsin content at 10% dosed to eyes via eye drop for 3 times at 6, 3 and 0 hrs before dark adaptation for 1 hr by spectrophotometry; type: functional, organism-based
Mus musculus [14] = organism: Mus musculus; assay: Inhibition of retinal RDH activity in mouse retinal microsomes assessed as effect on NADPH-dependent reduction of all-trans-retinal; conditions: Retina
Rattus norvegicus [15] = assay: Protection against light-induced retinal degeneration in Sprague-Dawley rat assessed as suppression of light-induced retinal structure loss at 50 mg/kg, ip dosed 16 to 24 hrs before 6 hrs light exposure and measured 7 days after light-exposure by electroretinography; type: functional, organism-based
Mus musculus [16] = assay: Inhibition of rhodopsin regeneration in completely light-adapted mouse BALB/c mouse assessed as effect on rhodopsin content at 10% dosed to eyes via eye drop for 2 times at 3 and 0 hrs before dark adaptation for 1 hr by spectrophotometry; type: functional, organism-based
Mus musculus [17] = assay: Protection against light-induced retinal degeneration in BALB/c mouse assessed as suppression of light-induced retinal rod function loss at 10% topical application dosed 0.5 hrs before 6 hrs light exposure and measured 5 days after light-exposure by electroretinography; type: functional, organism-based
Rattus norvegicus [18] = assay: Effect on cone function in Sprague-Dawley rat at 50 mg/kg, ip under steady rod-suppressing background illumination 60 mins post compound dosing by single- and flicker-flash ERG recordings based assay; type: functional, organism-based
Mus musculus [19] = assay: Inhibition of rhodopsin regeneration in completely light-adapted mouse BALB/c mouse assessed as effect on rhodopsin content at 10% dosed to eyes via eye drop followed by mouse moving to dark for 1 hr by spectrophotometry; type: functional, organism-based
Rattus norvegicus [20] = assay: Protection against light-induced retinal degeneration in Sprague-Dawley rat assessed as suppression of light-induced retinal structure loss at 50 mg/kg, ip dosed up to 12 hrs before 6 hrs light exposure and measured 7 days after light-exposure by electroretinography; type: functional, organism-based
[21] = Drug level in posterior eye cup of completely light-adapted mouse BALB/c mouse at 10% dosed to eyes via eye drop for 3 times at 6, 3 and 0 hrs before dark adaptation for 1 hr by mass spectrometry; type: ADME, organism-based; conditions: in vivo, topical_or_ocular
Rattus norvegicus [22] = assay: as §2, with “16 to 24” for “0.5”; type: functional, organism-based
Rattus norvegicus [23] = assay: (§3) Inhibition of rhodopsin regeneration in overnight dark-adaptated Sprague-Dawley rat assessed as effect on rhodopsin recovery by measuring rhodopsin content at 50 mg/kg, ip followed by exposure to room light for 2 hrs and measured 3 hrs after photo-bleach by spectrophotometry (reference value: 100%); type: functional; design: scale not given: the % may be the effect or the level left
[24] = molecular target: T1, Retinoid isomerohydrolase (Rattus norvegicus); assay: Inhibition of RPE65 in rat RPE microsomes assessed as reduction in isomero-hydrolase activity by measuring 11-cis-retinol generation at 1 mM using all-trans-[3H]-retinol by HPLC analysis
[25] = Drug level in […] in anesthetized baboon assessed per mg wet weight at 10 mg/ml dosed as two drops for every 15 minutes for 1.75 hrs by mass spectrometry; type: ADME, organism-based, Papio; conditions: in vivo, topical_or_ocular
Rattus norvegicus [26] = assay: as §2, with “up to 12” for “0.5”; type: functional, organism-based
Baboon = assay: Inhibition of rhodopsin regeneration in anesthetized baboon assessed as rhodopsin regeneration by measuring rhodopsin content in eye at 10 mg/ml dosed as two drops for every 15 minutes for 1.75 hrs by spectrophotometry (reference value: 100%); type: functional, Papio; design: scale not given: the % may be the effect or the level left
Rattus norvegicus [27] = assay: as §3, with “45 mins” for “3 hrs”; type: functional; design: scale not given: the % may be the effect or the level left
[28] = molecular target: T2, Lecithin retinol acyltransferase (Rattus norvegicus) (UniProt Q9JI61); assay: Inhibition of LRAT in rat RPE microsomes assessed as reduction in retinyl-ester at 1 mM using all-trans-[3H]-retinol by HPLC analysis
T2 sequence (whole entry): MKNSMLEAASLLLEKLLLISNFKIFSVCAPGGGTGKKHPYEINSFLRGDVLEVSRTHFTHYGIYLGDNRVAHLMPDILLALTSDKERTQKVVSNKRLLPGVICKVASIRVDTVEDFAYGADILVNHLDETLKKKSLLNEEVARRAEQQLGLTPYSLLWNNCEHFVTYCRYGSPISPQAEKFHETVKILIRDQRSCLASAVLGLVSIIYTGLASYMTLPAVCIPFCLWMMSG

With `CC(C)(C)/[N+]([O-])=C/c1ccc(C(F)(F)F)cc1` the Activity (Rattus norvegicus [1]) was “Active”, the inhibition (Rattus norvegicus [2]) was “Active” and the Activity (Rattus norvegicus [3]) was 804%.

In the case of `CC(C)(C)/[N+]([O-])=C/c1ccc(F)cc1`, the Activity (Rattus norvegicus [1]) was “Active” and the inhibition (Rattus norvegicus [2]) was “Active”.

In the case of `Cc1ccc(/C=[N+](\[O-])C(C)(C)C)cc1`, the Activity (Rattus norvegicus [1]) was “Active” and the inhibition (Rattus norvegicus [2]) was “Active”.

In the case of `CC(C)(C)/[N+]([O-])=C/c1ccccc1S(=O)(=O)[O-].[Na+]`, the Activity (Rattus norvegicus [4]) was “inactive”, the Activity (Rattus norvegicus [5]) was “inactive” and the Activity (Rattus norvegicus [6]) was “inactive”. The Activity (Rattus norvegicus [7]) was “inactive”, the Activity (Rattus norvegicus [8]) was “inactive” and the inhibition [9] was “inactive”. For the same molecule, the Activity (Mus musculus [10]) was 84.64%, the Activity (Rattus norvegicus [11]) was “inactive” and the Activity (Rattus norvegicus [12]) was “inactive”.

In the case of `CC(C)(C)/[N+]([O-])=C/c1ccccc1`, the Activity (Rattus norvegicus [1]) was 90%, the inhibition (Mus musculus [13]) was “Active” and the inhibition (Mus musculus [14]) was “inactive”. The Activity (Rattus norvegicus [15]) was “inactive”, the inhibition (Rattus norvegicus [2]) was “Active” and the inhibition (Mus musculus [16]) was “Active”. For the same molecule, the Activity (Rattus norvegicus [4]) was “inactive”, the Activity (Rattus norvegicus [5]) was “inactive” and the Activity (Rattus norvegicus [6]) was “Active”. For the same molecule, the Activity (Rattus norvegicus [7]) was “Active”, the Activity (Mus musculus [17]) was “Active” and the Activity (Rattus norvegicus [18]) was “inactive”. The inhibition (Mus musculus [19]) was “Active”, the Activity (Rattus norvegicus [20]) was “Active” and the Drug uptake [21] was “Active”. For the same molecule, the Activity (Rattus norvegicus [8]) was “inactive”, the inhibition [9] was “Dose-dependent effect” and the Activity (Rattus norvegicus [22]) was “inactive”. It also gave an Activity (Rattus norvegicus [23]) of 0%, an inhibition [24] of 100% and a Drug uptake [25] of 23.5 to 24.2 ng. For the same molecule, the Activity (Rattus norvegicus [11]) was “inactive”, the Activity (Rattus norvegicus [26]) was “Active” and the Activity (Baboon) was 26 - 36%. The Activity (Rattus norvegicus [27]) was 0%, the Activity (Rattus norvegicus [12]) was “Active” and the inhibition [28] was “inactive”.
